How the values were obtained:
Assay type in all cases: in vivo
Settings in all cases: application herbicide amount 320 g/ha
Leptochloa chinensis = assay: Test Example 3: herbicidal effect by foliage application, Wagner pot (symbol D)
In short: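 In a shallow-flooded alluvial soil system held at 25–30 °C, plants including rice grew for 14 days and were then sprayed over the foliage with emulsion diluted to a fixed herbicide amount. Visual rating followed at 3 weeks.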

Alopecurus myosuroides = assay: Test Example 4: herbicidal effect by soil treatment (symbol J)
In short: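 Seeds were sown in sterilized diluvial soil, covered with about 1.5 cm of soil, and the soil surface was sprayed with a water-diluted emulsion of the compound at a predetermined rate. Plants grew in a greenhouse at 25° C. to 30° C.; effects were scored visually 3 weeks after application.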

rapeseed = assay: Test Example 4: effect on crop by soil treatment (symbol g)
In short: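 Soil-treatment setup: crop and weed seeds were spot-sown into sterilized diluvial soil, then buried beneath approximately 1.5 cm of it, and the boxes were housed in a 25–30° C. greenhouse.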

Row | SMILES | herbicidal effect on D (Leptochloa chinensis), grade 0-5 (Leptochloa chinensis) | Herbicidal effect grade, J: Alopecurus myosuroides (Alopecurus myosuroides) | Effect on crop grade, g: rapeseed (rapeseed) | J (Alopecurus myosuroides) herbicidal effect grade (Alopecurus myosuroides) | g (rapeseed) effect on crop grade (rapeseed) | J: Alopecurus myosuroides, herbicidal effect grade (Alopecurus myosuroides) | g: rapeseed, effect on crop grade (rapeseed)
1 | CON=C(C)CC1CC(OC(=O)N(C)C)=C(c2c(C)cc(C)cc2OC)C1=O (stereo not drawn) [6-109] | 4 (Herbicidal ratio of 70% or higher and lower than 90%) | 5 (Herbicidal ratio of 90% or more (almost completely withered)) | 0 (Herbicidal ratio of 5% or lower (almost no effect)) |  |  |  | 
2 | CON=C(C)CC1CC(O)=C(c2c(F)cc(C)cc2OC)C1=O (stereo not drawn) [6-108] | 5 (Herbicidal ratio of 90% or more (almost completely withered)) | 3 (Herbicidal ratio of 40% or higher and lower than 70%) | 4 (Herbicidal ratio of 70% or higher and lower than 90%) |  |  |  | 
3 | COC(=O)CON=C(C)CC1CC(O)=C(c2c(C)cc(C)cc2C)C1=O (stereo not drawn) [1-023] | 5 (Herbicidal ratio of 90% or more (almost completely withered)) |  |  | 0 (Herbicidal ratio of 5% or lower (almost no effect)) | 0 (Herbicidal ratio of 5% or lower (almost no effect)) |  | 
4 | CON=C(C)CC1CC(OS(=O)(=O)N(C)C)=C(c2c(C)cc(-c3ccc(F)cc3)cc2C)C1=O (mixture of isomers) [6-060] | 5 (Herbicidal ratio of 90% or more (almost completely withered)) |  |  |  |  | 3 (Herbicidal ratio of 40% or higher and lower than 70%) | 0 (Herbicidal ratio of 5% or lower (almost no effect))
5 | CON=C(C)CC1CC(OC(=O)CCCC(C)=O)=C(c2c(C)cc(-c3ccc(Cl)cc3)cc2C)C1=O (stereo not drawn) [6-080] | 5 (Herbicidal ratio of 90% or more (almost completely withered)) |  |  |  |  | 5 (Herbicidal ratio of 90% or more (almost completely withered)) | 0 (Herbicidal ratio of 5% or lower (almost no effect))
6 | CCc1cc(-c2ccc(Cl)cc2)cc(C)c1C1=C(OC(=O)N2CCOCC2)CC(CC(C)=NOC)C1=O (mixture of isomers) [6-064] | 5 (Herbicidal ratio of 90% or more (almost completely withered)) |  |  |  |  | 4 (Herbicidal ratio of 70% or higher and lower than 90%) | 0 (Herbicidal ratio of 5% or lower (almost no effect))
7 | CON=C(C)CC1CC(O)=C(c2c(C)cc(-c3ccc(F)cc3)cc2C)C1=O (mixture of isomers) [6-058] | 5 (Herbicidal ratio of 90% or more (almost completely withered)) |  |  |  |  | 5 (Herbicidal ratio of 90% or more (almost completely withered)) | 5 (Herbicidal ratio of 90% or more (almost completely withered))
8 | CC(=O)CC1CC(O)=C(c2c(C)cc(-c3ccccn3)cc2C)C1=O (stereo not drawn) [7-012] | 5 (Herbicidal ratio of 90% or more (almost completely withered)) | 2 (Herbicidal ratio of 20% or higher and lower than 40%) | 0 (Herbicidal ratio of 5% or lower (almost no effect)) |  |  |  | 
9 | CON=C(C)CC1CC(O)=C(c2c(C)cc(C(C)=NOC)cc2C)C1=O (stereo not drawn) [6-065] | 5 (Herbicidal ratio of 90% or more (almost completely withered)) |  |  |  |  | 5 (Herbicidal ratio of 90% or more (almost completely withered)) | 3 (Herbicidal ratio of 40% or higher and lower than 70%)
10 | CON=C(C)CC1CC(OC(=O)COc2ccccc2)=C(c2c(C)cc(C)cc2OC)C1=O (stereo not drawn) [6-091] | 5 (Herbicidal ratio of 90% or more (almost completely withered)) | 5 (Herbicidal ratio of 90% or more (almost completely withered)) | 4 (Herbicidal ratio of 70% or higher and lower than 90%) |  |  |  | 
11 | CON=C(C)CC1CC(OC(=O)C2CC2)=C(c2c(C)cc(C)cc2C)C1=O (stereo not drawn) [1-015] | 5 (Herbicidal ratio of 90% or more (almost completely withered)) |  |  | 5 (Herbicidal ratio of 90% or more (almost completely withered)) | 4 (Herbicidal ratio of 70% or higher and lower than 90%) |  | 
12 | COc1ccc(-c2cc(C)c(C3=C(O)CC(CC(C)=O)C3=O)c(C)c2)cc1 (stereo not drawn) [7-006] | 5 (Herbicidal ratio of 90% or more (almost completely withered)) | 0 (Herbicidal ratio of 5% or lower (almost no effect)) | 0 (Herbicidal ratio of 5% or lower (almost no effect)) |  |  |  | 
13 | CON=C(C)CC1CC(O)=C(c2c(C)cc(C)cc2SC)C1=O (stereo not drawn) [6-075] | 3 (Herbicidal ratio of 40% or higher and lower than 70%) |  |  |  |  | 4 (Herbicidal ratio of 70% or higher and lower than 90%) | 0 (Herbicidal ratio of 5% or lower (almost no effect))
14 | CON=C(C)CC1CC(OC(=O)N2CCOCC2)=C(c2c(C)cc(-c3ccc(Cl)cc3F)cc2C)C1=O (stereo not drawn) [6-089] | 5 (Herbicidal ratio of 90% or more (almost completely withered)) | 2 (Herbicidal ratio of 20% or higher and lower than 40%) | 0 (Herbicidal ratio of 5% or lower (almost no effect)) |  |  |  | 
15 | CON=C(C)CC1CC(O)=C(c2c(C)cc(-c3cc(F)c(F)c(F)c3)cc2C)C1=O (stereo not drawn) [6-104] | 5 (Herbicidal ratio of 90% or more (almost completely withered)) | 5 (Herbicidal ratio of 90% or more (almost completely withered)) | 4 (Herbicidal ratio of 70% or higher and lower than 90%) |  |  |  | 
16 | CON=C(C)CC1CC(OC(=O)C(C)CSC)=C(c2c(C)cc(-c3ccc(Cl)cc3)cc2C)C1=O (stereo not drawn) [6-086] | 5 (Herbicidal ratio of 90% or more (almost completely withered)) | 5 (Herbicidal ratio of 90% or more (almost completely withered)) | 4 (Herbicidal ratio of 70% or higher and lower than 90%) |  |  |  | 
17 | CC(=O)CC1CC(O)=C(c2c(C)cc(-n3cccn3)cc2C)C1=O (stereo not drawn) [7-024] | 5 (Herbicidal ratio of 90% or more (almost completely withered)) | 0 (Herbicidal ratio of 5% or lower (almost no effect)) | 0 (Herbicidal ratio of 5% or lower (almost no effect)) |  |  |  | 
18 | CON=C(C)CC1CC(OCOC(=O)c2ccccc2)=C(c2c(C)cc(-c3ccc(Cl)cc3)cc2C)C1=O (stereo not drawn) [6-083] | 5 (Herbicidal ratio of 90% or more (almost completely withered)) |  |  |  |  | 5 (Herbicidal ratio of 90% or more (almost completely withered)) | 0 (Herbicidal ratio of 5% or lower (almost no effect))
